Read-outs that look alike come from different tables or passages of the source.
Biological target: T1, CCR-3 receptor (Homo sapiens, UniProt P51677)
T1 construct: expressed in transfected cells; host or cells: L1.2 (murine pre-B lymphoma line)
T1 sequence (P51677 1-355): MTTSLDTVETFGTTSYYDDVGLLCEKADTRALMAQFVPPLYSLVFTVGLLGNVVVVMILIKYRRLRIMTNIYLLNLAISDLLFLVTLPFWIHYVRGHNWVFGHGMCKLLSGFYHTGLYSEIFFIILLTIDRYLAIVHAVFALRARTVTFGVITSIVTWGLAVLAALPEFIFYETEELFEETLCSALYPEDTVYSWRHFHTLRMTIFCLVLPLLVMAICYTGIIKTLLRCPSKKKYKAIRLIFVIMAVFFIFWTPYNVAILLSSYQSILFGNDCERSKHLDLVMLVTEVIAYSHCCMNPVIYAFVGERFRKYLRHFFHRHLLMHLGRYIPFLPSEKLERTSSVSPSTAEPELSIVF
Experiment: CCR-3 Receptor Binding Assay in vitro (inhibition of 125I eotaxin binding to CCR-3 L1.2 transfectant cells)
Description: The CCR-3 antagonistic activity of the compounds of the invention was determined by their ability to inhibit the binding of ^125I eotaxin to CCR-3 L1.2 transfectant cells (see Ponath, P. D. et al., J. Exp. Med., Vol. 183, 2437-2448, (1996)).
The assay was performed in Costar 96-well polypropylene round bottom plates. Test compounds were dissolved in DMSO and then diluted with binding buffer (50 mM HEPES, 1 mM CaCl2, 5 mM MgCl2, 0.5% bovine serum albumin (BSA), 0.02% sodium azide, pH 7.24) such that the final DMSO concentration was 2%. Each well was filled with 25 μl of the test solution or only buffer with DMSO (control samples) followed by the addition of 25 μl of ^125I-eotaxin (100 pmol) (NEX314, New England Nuclear, Boston, Mass.) and 1.5×10^5 of the CCR-3 L1.2 transfected cells in 25 μl binding buffer. The final reaction volume was 75 μl.
After incubating the reaction mixture for 1 h at room temperature, the reaction was terminated by filtering the reaction mixture through polyethylenimine treated Packard Unifilter GF/C filter plate (Packard, Chicago, Ill.). The filters were washed four times with ice cold wash buffer containing 10 mM HEPES and 0.5M sodium chloride (pH 7.2) and dried at 65° C. for approximately 10 min. 25 μl/well of Microscint-20™ scintillation fluid (Packard) was added and the radioactivity retained on the filters was determined by using the Packard TopCount™.
The IC50 value (concentration of test compound required to reduce ^125I-eotaxin binding to the CCR-3 L 1.2 transfected cells by 50%) for compounds in Table I of the invention was between 0.02 and 200 μM, preferably between 0.02 and 10 μM.

[1] = concentration reducing 125I-eotaxin binding to CCR-3 L1.2 transfected cells by 50%, read-out: CCR-3 IC50

Structure (SMILES)	IC50 (stated in text for the compound where Z is —C(═O)—, assay not given, read-out: IC50) [µM]	IC50 [1] [µM]
COc1ccc(-c2cnc(SCC(=O)NCC3CCCN(C(=O)CCc4ccc(Cl)cc4)C3)nc2)cc1OC (racemic) [Compound 70, (±)-N-{1-[3-(4-Chlorophenyl)-propionyl]-piperidin-3-ylmethyl}-2-[5-(3,4-dimethoxy-phenyl)-pyrimidin-2-ylsulfanyl]-acetamide]	1.92	–
COc1ccc(-c2cnc(SCC(=O)NCC3CCCN(Cc4ccc5cc[nH]c5c4)C3)nc2)cc1OC (centres unmarked) [Compound 1]	–	0.025
COc1ccc(-c2cnc(SCC(=O)NCC3CCCN(Cc4ccc(Cl)c(Cl)c4)C3)nc2)cc1OC (centres unmarked) [Compound 2, N-[1-(3,4-dichloro-benzyl)-piperidin-3-ylmethyl]-2-[5-(3,4-dimethoxy-phenyl)-pyrimidin-2-ylsulfanyl]-acetamide]	–	0.029
COc1ccc(-c2cnc(CCC(=O)NCC3CCCN(Cc4ccc(Br)c(Br)c4)C3)nc2)cc1OC (centres unmarked) [Compound 8, N-[1-(3,4-dibromo-benzyl)-piperidin-3-ylmethyl]-3-[5-(3,4-dimethoxy-phenyl)-pyrimidin-2-yl]-propionamide]	–	0.107
COc1ccc(-c2cnc(CCC(=O)NCC3CCCN(Cc4ccc(Cl)c(Cl)c4)C3)nc2)cc1OC (centres unmarked) [Compound 9, N-[1-(3,4-dichloro-benzyl)-piperidin-3-ylmethyl]-3-[5-(3,4-dimethoxy-phenyl)-pyrimidin-2-yl]-propionamide]	–	0.152
COc1ccc(-c2cnc(CCC(=O)NCC3CCCN(Cc4ccc(Cl)c(Cl)c4)C3)nc2)cc1OC (centres unmarked) [Compound 10, N-[1-(3,4-dichloro-benzyl)-piperidin-3-ylmethyl]-3-[5-(3,4-dimethoxy-phenyl)-pyrimidin-2-yl]-propionamide]	–	0.164
COc1ccc(-c2cnc(SCC(=O)NCC3CCCN(Cc4ccc5c(c4)OCO5)C3)nc2)cc1OC (centres unmarked) [Compound 13, N-(1-benzo[1,3]-dioxol-5-ylmethyl-piperidin-3-ylmethyl]-2-[5-(3,4-dimethoxy-phenyl)-pyrimidin-2-ylsulfanyl]-acetamide]	–	0.205
COc1ccc(-c2cnc(SCC(=O)NCC3CCCN(Cc4ccc5ccccc5c4)C3)nc2)cc1OC (centres unmarked) [Compound 15, 2-[5-(3,4-dimethoxy-phenyl)-pyrimidin-2-ylsulfanyl]-N-(1-naphthalen-2-yl-methyl-piperidin-3-ylmethyl)-acetamide]	–	0.263
COc1ccc(-c2cnc(SCC(=O)NCC3CCCN(Cc4ccc5c(c4)CCC5)C3)nc2)cc1OC (centres unmarked) [Compound 16, 2-[5-(3,4-dimethoxy-phenyl)-pyrimidin-2-ylsulfanyl]-N-(1-indan-5-ylmethyl-piperidin-3-ylmethyl)-acetamide]	–	0.276
COc1ccc(-c2cnc(CCC(=O)NCC3CCCN(Cc4cccc(Cl)c4Cl)C3)nc2)cc1 (centres unmarked) [Compound 23, N-[1-(2,3-dichloro-benzyl)-piperidin-3-ylmethyl]-3-[5-(4-methoxy-phenyl)-pyrimidin-2-yl]-propionamide]	–	0.403
COc1ccc(-c2cnc(OCC(=O)NCC3CCCN(Cc4cccc(Cl)c4Cl)C3)nc2)cc1OC (centres unmarked) [Compound 26, N-[1-(2,3-dichloro-benzyl)-piperidin-3-ylmethyl]-2-[5-(3,4-dimethoxy-phenyl)-pyrimidin-2-yloxy]-acetamide]	–	0.507
COc1ccc(-c2cnc(SCC(=O)NCC3CCCN(Cc4ccc5cc[nH]c5c4)C3)nc2)cc1 (centres unmarked) [Compound 30]	–	0.731
COc1ccc(-c2cnc(SCC(=O)NCC3CCCN(Cc4ccc(Cl)c(F)c4)C3)nc2)cc1OC (centres unmarked) [Compound 33, N-[1-(4-chloro-3-fluoro-benzyl)-piperidin-3-ylmethyl]-2-[5-(3,4-dimethoxy-phenyl)-pyrimidin-2-ylsulfanyl]-acetamide]	–	0.973
COc1ccc(-c2cnc(CCC(=O)NCC3CCCN(Cc4ccc5c(c4)CCC5)C3)nc2)cc1OC (centres unmarked) [Compound 34, 3-[5-(3,4-dimethoxy-phenyl)-pyrimidin-2-yl]-N-(1-indan-5-yl-methyl-piperidin-3-ylmethyl)-propion-amide]	–	0.994

Reference: patent US6984643B2, “2,5-substituted pyrimidine derivatives-CCR-3 receptor antagonists” (Roche Palo Alto LLC, priority 2002, dated 2006)
